Measured values published in patent US6399615B1, “Farnesyl protein transferase inhibitors” (Schering Corporation, priority 1997, dated 2002).

Legend:
[1] = target: farnesyl protein transferase (Homo sapiens, UniProt P49354+P49356); experiment: FPT IC50 (inhibition of farnesyl protein transferase, in vitro enzyme assay); format: biochemical
Description: (§1) FPT IC50 (inhibition of farnesyl protein transferase, in vitro enzyme assay) and COS Cell IC50 (Cell-Based Assay) were determined following the assay procedures described in WO 95/10516, published Apr. 20, 1995. GGPT IC50 (inhibition of geranylgeranyl protein transferase, in vitro enzyme assay), Cell Mat Assay, and anti-tumor activity (in vivo anti-tumor studies) could be determined by the assay procedures described in WO 95/10516. The disclosure of WO 95/10516 is incorporated herein by reference thereto.

COS Cell = COS Cell IC50 (Cell-Based Assay); conditions: COS cells
Description: as §1

Human tumor cells = experiment: Soft Agar Assay (anchorage-independent growth); format: cell-based; conditions: colony growth in soft agar
Description: Anchorage-independent growth is a characteristic of tumorigenic cell lines. Human tumor cells are suspended in growth medium containing 0.3% agarose and an indicated concentration of a farnesyl transferase inhibitor. The solution is overlayed onto growth medium solidified with 0.6% agarose containing the same concentration of farnesyl transferase inhibitor as the top layer. After the top layer is solidified, plates are incubated for 10-16 days at 37° C. under 5% CO2 to allow colony outgrowth. After incubation, the colonies are stained by overlaying the agar with a solution of MTT (3-[4,5-dimethyl-thiazol-2-yl]-2,5-diphenyltetrazolium bromide, Thiazolyl blue) (1 mg/mL in PBS). Colonies can be counted and the IC50's can be determined.

| Compound | IC50 [1] | melting point | IC50 (COS Cell) | IC50 (Human tumor cells) |
| --- | --- | --- | --- | --- |
| O=C(NCc1ccncc1)c1ccccc1CC(=O)N1CCC([C@H]2c3ncc(Br)cc3CCc3cc(Cl)cc(Br)c32)CC1 [Example 24] | 47 nM | 134 to 138 °C | – | – |
| O=C(Cc1ccccc1C(=O)N1CCOCC1)N1CCC([C@H]2c3ncc(Br)cc3CCc3cc(Cl)cc(Br)c32)CC1 [Example 26] | 56 nM | 136 to 138 °C | – | – |
| O=C(O)[C@H]1CC[C@H](C(=O)N2CCC([C@H]3c4ncc(Br)cc4CCc4cc(Cl)cc(Br)c43)CC2)CC1 [Example 5] | 46 nM | 138 to 140 °C | – | – |
| O=C(Cc1ccc(CC(=O)N2CCC([C@H]3c4ncc(Br)cc4CCc4cc(Cl)cc(Br)c43)CC2)cc1)NCCO [Example 20] | > 140 nM | 94 to 100 °C | – | – |
| O=C(Cc1ccccc1C(=O)N1CCC([C@H]2c3ncc(Br)cc3CCc3cc(Cl)cc(Br)c32)CC1)N1CCOCC1 [Example 11] | 250 nM | 127 to 128 °C | – | – |
| CC(C)(C)OC(=O)C[C@H]1CC[C@@H](C(=O)N2CCC([C@H]3c4ncc(Br)cc4CCc4cc(Cl)cc(Br)c43)CC2)CC1 [Example 9] | 44 nM | 98 to 102 °C | – | – |
| O=C(O)CC1CCC(CC(=O)N2CCC([C@H]3c4ncc(Br)cc4CCc4cc(Cl)cc(Br)c43)CC2)CC1 (stereo partly drawn) [Example 13] | 1.5 nM | – | 10 nM | > 500 nM |
| CC(C)(C)OC(=O)C=C1CCC(=CC(=O)N2CCC([C@H]3c4ncc(Br)cc4CCc4cc(Cl)cc(Br)c43)CC2)CC1 [Example 7] | 110 nM | 113 to 117 °C | – | – |
| COC(=O)CNC(=O)c1ccccc1CC(=O)N1CCC([C@H]2c3ncc(Br)cc3CCc3cc(Cl)cc(Br)c32)CC1 [Example 25] | 36 nM | 116 to 118 °C | – | – |
| O=C(O)C1CCC(CC(=O)N2CCC([C@H]3c4ncc(Br)cc4CCc4cc(Cl)cc(Br)c43)CC2)CC1 (stereo partly drawn) [Example 12] | 1.9 nM | – | 10 nM | > 500 nM |
| O=C(O)C[C@H]1CC[C@@H](C(=O)N2CCC([C@H]3c4ncc(Br)cc4CCc4cc(Cl)cc(Br)c43)CC2)CC1 [Example 35] | 3.3 nM | – | 70 nM | – |
| NC(=O)Cc1ccc(CC(=O)N2CCC([C@H]3c4ncc(Br)cc4CCc4cc(Cl)cc(Br)c43)CC2)cc1 [Example 15] | 3.6 nM | – | 100 nM | > 500 nM |
| O=C(O)C[C@H]1CC[C@H](C(=O)N2CCC([C@H]3c4ncc(Br)cc4CCc4cc(Cl)cc(Br)c43)CC2)CC1 [Example 36] | 10.2 nM | – | 500 nM | – |
| CC(C)(C)OC(=O)C[C@H]1CC[C@H](C(=O)N2CCC([C@H]3c4ncc(Br)cc4CCc4cc(Cl)cc(Br)c43)CC2)CC1 [Example 10] | 91 nM | 98 to 102 °C | – | – |
| O=C(NO)c1ccccc1CC(=O)N1CCC([C@H]2c3ncc(Br)cc3CCc3cc(Cl)cc(Br)c32)CC1 [Example 27] | 53 nM | 156 to 157 °C | – | – |
| O=C(O)c1ccccc1CC(=O)N1CCC([C@H]2c3ncc(Br)cc3CCc3cc(Cl)cc(Br)c32)CC1 [Example 1] | 66 nM | 229 °C (dec.) | – | – |

Second part, led by results:

| IC50 [1] | melting point | Compound | IC50 (COS Cell) | IC50 (Human tumor cells) |
| --- | --- | --- | --- | --- |
| 8.3 nM | – | NC(=O)[C@@H]1C[C@H]1C(=O)N1CCC([C@H]2c3ncc(Br)cc3CCc3cc(Cl)cc(Br)c32)CC1 [Example 29 (compound 54.0)] | – | – |
| 5.2 nM | 161 to 169 °C | O=C(O)C=C1CCC(=CC(=O)N2CCC([C@H]3c4ncc(Br)cc4CCc4cc(Cl)cc(Br)c43)CC2)CC1 [Example 14] | 55 nM | – |
| 6.3 nM | 103 to 110 °C | NC(=O)CC1CCC(CC(=O)N2CCC(C3c4ncc(Br)cc4CCc4cc(Cl)cc(Br)c43)CC2)CC1 (stereo not drawn) [Example 22] | 22 nM | – |
| 6.2 nM | – | NC(=O)[C@H]1C[C@@H]1C(=O)N1CCC([C@H]2c3ncc(Br)cc3CCc3cc(Cl)cc(Br)c32)CC1 [30 (compound 55.0)] | 50 nM | – |
| 4.6 nM | 145 to 152 °C | NC(=O)C1CCC(CC(=O)N2CCC(C3c4ncc(Br)cc4CCc4cc(Cl)cc(Br)c43)CC2)CC1 (stereo not drawn) [Example 23] | 18 nM | – |
| 8.6 nM | 81 to 86 °C | COC(=O)Cc1ccc(CC(=O)N2CCC([C@H]3c4ncc(Br)cc4CCc4cc(Cl)cc(Br)c43)CC2)cc1 [Example 34] | 180 nM | – |
| 19 nM | 86 to 90 °C | CC(C)(C)OC(=O)CC1CCC(CC(=O)N2CCC([C@H]3c4ncc(Br)cc4CCc4cc(Cl)cc(Br)c43)CC2)CC1 (stereo partly drawn) [Example 6] | – | – |
| 25 nM | – | COC(=O)[C@H]1C[C@@H]1C(=O)N1CCC([C@H]2c3ncc(Br)cc3CCc3cc(Cl)cc(Br)c32)CC1 [30 (compound 55.1)] | – | – |
| 6.3 nM | 119 to 125 °C | NC(=O)Cc1cccc(CC(=O)N2CCC([C@H]3c4ncc(Br)cc4CCc4cc(Cl)cc(Br)c43)CC2)c1 [Example 16] | 375 nM | – |
| 4.7 nM | 116 to 123 °C | CONC(=O)Cc1ccc(CC(=O)N2CCC([C@H]3c4ncc(Br)cc4CCc4cc(Cl)cc(Br)c43)CC2)cc1 [Example 19] | 90 nM | – |
| 34 nM | – | COC(=O)[C@@H]1C[C@H]1C(=O)N1CCC([C@H]2c3ncc(Br)cc3CCc3cc(Cl)cc(Br)c32)CC1 [Example 29 (compound 54.1)] | – | – |
| 1.6 nM | 186 to 189 °C | O=C(O)Cc1ccc(CC(=O)N2CCC([C@H]3c4ncc(Br)cc4CCc4cc(Cl)cc(Br)c43)CC2)cc1 [Example 3] | 380 nM | – |
| 4.1 nM | 205 °C (dec.) | O=C(O)Cc1cccc(CC(=O)N2CCC([C@H]3c4ncc(Br)cc4CCc4cc(Cl)cc(Br)c43)CC2)c1 [Example 4] | 400 nM | – |
| 5.3 nM | 94 to 97 °C | COC(=O)CNC(=O)Cc1ccc(CC(=O)N2CCC([C@H]3c4ncc(Br)cc4CCc4cc(Cl)cc(Br)c43)CC2)cc1 [Example 18] | 450 nM | – |
| 9.5 nM | 86 to 90 °C | COC(=O)CNC(=O)Cc1cccc(CC(=O)N2CCC([C@H]3c4ncc(Br)cc4CCc4cc(Cl)cc(Br)c43)CC2)c1 [Example 17] | 410 nM | – |
